The half-life is the time needed for the level to fall by half in the phase considered. The low end stands for rapid decline, the high end for slow decline. As usually defined, the Cmax is the peak of the concentration-time curve. The term clearance denotes the volume of plasma or blood freed of the substance per unit of time. A higher clearance goes with a high capacity for elimination. Broadly, the IC50 is the concentration that gives 50% inhibition. Broadly, the AUC(0-t) is the area under the concentration-time curve up to a stated or last time point. Lower therefore signals less exposure. The bioavailability is the share of a dose that reaches the circulation, judged against a reference dose that is usually intravenous. Read a high bioavailability as much systemic uptake. One may read the Papp A→B as the apparent permeability from the apical to the basolateral side of a cell layer. As a reminder, the EC50 is the midpoint of the concentration-response curve. Read a high EC50 as weaker potency.

Each structure is given as a SMILES string. Substitutions are numbered along the chain they refer to. Active and inactive are the calls of the source. Bounds are passed on as bounds.

Data set [1] can be described thus: Hepatotoxicity in dog assessed as bile degeneration administered orally as single dose for 14 days. The conditions noted are these: in vivo, po, 336 h, time 14 day. Format: toxicity, tissue-based, Canis lupus familiaris.
The target of data set [2] is T1, Androgen receptor (Rattus norvegicus) (UniProt P15207).
T1 sequence (whole entry): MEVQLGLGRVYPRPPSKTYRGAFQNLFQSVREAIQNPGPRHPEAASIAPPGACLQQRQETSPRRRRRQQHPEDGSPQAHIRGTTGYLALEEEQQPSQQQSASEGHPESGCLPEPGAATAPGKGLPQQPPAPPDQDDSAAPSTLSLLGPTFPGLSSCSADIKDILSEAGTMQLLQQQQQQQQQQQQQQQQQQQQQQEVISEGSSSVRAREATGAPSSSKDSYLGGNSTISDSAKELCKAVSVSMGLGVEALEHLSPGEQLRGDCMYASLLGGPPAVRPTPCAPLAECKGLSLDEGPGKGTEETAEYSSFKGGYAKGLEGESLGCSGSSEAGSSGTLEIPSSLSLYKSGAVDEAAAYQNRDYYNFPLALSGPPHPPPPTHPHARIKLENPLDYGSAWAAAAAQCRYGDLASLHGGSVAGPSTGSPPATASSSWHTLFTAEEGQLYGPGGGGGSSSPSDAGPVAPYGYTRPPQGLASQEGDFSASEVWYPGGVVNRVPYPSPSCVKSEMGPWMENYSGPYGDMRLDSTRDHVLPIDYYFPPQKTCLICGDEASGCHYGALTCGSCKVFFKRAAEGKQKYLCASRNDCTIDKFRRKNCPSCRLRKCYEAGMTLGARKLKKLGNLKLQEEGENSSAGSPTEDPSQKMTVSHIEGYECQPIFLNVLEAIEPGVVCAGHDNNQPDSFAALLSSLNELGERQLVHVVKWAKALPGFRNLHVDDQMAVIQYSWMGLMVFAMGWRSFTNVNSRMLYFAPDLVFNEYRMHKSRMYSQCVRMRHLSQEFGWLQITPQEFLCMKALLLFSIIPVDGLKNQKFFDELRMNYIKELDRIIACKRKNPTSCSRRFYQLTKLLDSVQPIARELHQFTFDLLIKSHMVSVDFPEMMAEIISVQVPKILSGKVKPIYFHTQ
The data set can be described thus: In vivo antagonist activity at AR in peripubertal castrated male Sprague-Dawley rat assessed as inhibition of testosterone propionate-induced increase in glans penis weight at 10 mg/kg, po QD for 10 days measured 24 hrs post last dose by Hershberger's assay. Format: functional, organism-based. The conditions noted are these: time 10.0 day.

A short description of data set [3]: Hepatotoxicity in dog assessed as liver necrosis administered orally as single dose for 14 days. In kind it is toxicity, tissue-based, Canis lupus familiaris. The conditions noted are these: in vivo, po, 336 h, time 14 day.
Data set [4] is described as follows: Drug metabolism in dog liver microsomes assessed as unchanged parent compound at 10 uM incubated for 60 mins in presence of glutathione and NADPH by LC-MS/MS analysis. Conditions: read-out: Drug metabolism. In kind it is ADME, Canis lupus familiaris, Microsome.
Data set [5] is described as follows: Half life in CD1 mouse at 2 mg/kg, iv. In kind it is ADME, organism-based. The conditions noted are these: in vivo.
Data set [6] can be described thus: Hepatotoxicity in dog assessed as increase in […] level administered orally as single dose for 14 days. Format: toxicity, Canis lupus familiaris. Conditions: in vivo, po, 336 h, time 14 day.
The nature of data set [7]: Cmax in CD1 mouse at 10 mg/kg, po. Format: ADME, organism-based. Also noted: route oral, dose 10 mg/kg. The conditions noted are these: in vivo.
Data set [8] can be described thus: Volume of distribution at steady state in CD1 mouse at 2 mg/kg, iv. Format: ADME, organism-based. The conditions noted are these: in vivo, read-out: Vdss.
The target in data set [9] is T1, Androgen receptor (Rattus norvegicus). The data set can be described thus: In vivo antagonist activity at AR in peripubertal castrated male Sprague-Dawley rat assessed as inhibition of testosterone propionate-induced increase in levator […] complex weight at 10 mg/kg, po QD for 10 days measured 24 hrs post last dose by Hershberger's assay. Format: functional, organism-based. The conditions noted are these: time 10.0 day.

Data set [10] is described as follows: Drug metabolism in dog liver microsomes assessed as unchanged parent compound at 10 uM incubated for 60 mins in presence of glutathione by LC-MS/MS analysis. Format: ADME, Canis lupus familiaris, Microsome. The conditions noted are these: read-out: Drug metabolism. A general note: Microsomes from liver hold many membrane-bound enzymes, among them those of drug oxidation.

Data set [11] relates to liver microsomes (Homo sapiens). Put plainly: Half life in human liver microsomes.
Data set [12] concerns the target T1, Androgen receptor (Rattus norvegicus). Put plainly: In vivo antagonist activity at AR in peripubertal castrated male Sprague-Dawley rat assessed as inhibition of testosterone propionate-induced increase in seminal vesicle with fluid and coagulating gland weight at 10 mg/kg, po QD for 10 days measured 24 hrs post last dose by Hershberger's assay. In kind it is functional, organism-based. Conditions: time 10.0 day.

Data set [13] is described as follows: Clearance in CD1 mouse at 2 mg/kg, iv. Format: ADME, organism-based. Conditions: in vivo.
Data set [14] relates to VCaP. The data set can be described thus: Antiproliferative activity against human VCaP cells expressing wild-type androgen receptor assessed as reduction in cell viability incubated for 5 days in presence of R1881 by CellTiter-glo assay. Format: functional, cell-based. Conditions: 120 h. A general note: ATP-based viability assays read luminescence as a measure of living cells.

Data set [15] concerns the target T1, Androgen receptor (Rattus norvegicus). Put plainly: In vivo antagonist activity at AR in peripubertal castrated male Sprague-Dawley rat assessed as inhibition of testosterone propionate-induced increase in paired cowper's gland weight at 10 mg/kg, po QD for 10 days measured 24 hrs post last dose by Hershberger's assay. In kind it is functional, organism-based. The conditions noted are these: time 10.0 day.

Data set [16] is described as follows: AUC(0 to last) in CD1 mouse at 10 mg/kg, po. In kind it is ADME, organism-based. Also noted: route oral, time 0 - last, dose 10 mg/kg. Conditions: in vivo.
A short description of data set [17]: Oral bioavailability in CD1 mouse at 10 mg/kg. Format: ADME, organism-based. The conditions noted are these: in vivo.
Data set [18] is described as follows: Hepatotoxicity in dog assessed as increase in gamma glutamyl transferase level administered orally as single dose for 14 days. In kind it is toxicity, Canis lupus familiaris. The conditions noted are these: in vivo, po, 336 h, time 14 day.
Data set [19] in a line: Apparent passive permeability from apical to basolateral side in MDCK-MDR1 cells in presence P-gp inhibitor. Format: ADME, cell-based, Canis lupus familiaris. The conditions noted are these: dog, MDCK-MDR1, with P-gp inhibitor (name and concentration not stated).
Data set [20] addresses T1, Androgen receptor (Rattus norvegicus). The data set can be described thus: In vivo antagonist activity at AR in peripubertal castrated male Sprague-Dawley rat assessed as inhibition of testosterone propionate-induced increase in ventral prostate weight at 10 mg/kg, po QD for 10 days measured 24 hrs post last dose by Hershberger's assay. Conditions: time 10.0 day. In kind it is functional, organism-based.

Data set [21] can be described thus: Hepatotoxicity in dog assessed as increase in alanine aminotransferase level administered orally as single dose for 14 days. Format: toxicity, Canis lupus familiaris. Conditions: in vivo, po, 336 h, time 14 day.
Data set [22] relates to T2, Androgen receptor (Homo sapiens), P10275 [F877L].
T2 sequence (whole entry): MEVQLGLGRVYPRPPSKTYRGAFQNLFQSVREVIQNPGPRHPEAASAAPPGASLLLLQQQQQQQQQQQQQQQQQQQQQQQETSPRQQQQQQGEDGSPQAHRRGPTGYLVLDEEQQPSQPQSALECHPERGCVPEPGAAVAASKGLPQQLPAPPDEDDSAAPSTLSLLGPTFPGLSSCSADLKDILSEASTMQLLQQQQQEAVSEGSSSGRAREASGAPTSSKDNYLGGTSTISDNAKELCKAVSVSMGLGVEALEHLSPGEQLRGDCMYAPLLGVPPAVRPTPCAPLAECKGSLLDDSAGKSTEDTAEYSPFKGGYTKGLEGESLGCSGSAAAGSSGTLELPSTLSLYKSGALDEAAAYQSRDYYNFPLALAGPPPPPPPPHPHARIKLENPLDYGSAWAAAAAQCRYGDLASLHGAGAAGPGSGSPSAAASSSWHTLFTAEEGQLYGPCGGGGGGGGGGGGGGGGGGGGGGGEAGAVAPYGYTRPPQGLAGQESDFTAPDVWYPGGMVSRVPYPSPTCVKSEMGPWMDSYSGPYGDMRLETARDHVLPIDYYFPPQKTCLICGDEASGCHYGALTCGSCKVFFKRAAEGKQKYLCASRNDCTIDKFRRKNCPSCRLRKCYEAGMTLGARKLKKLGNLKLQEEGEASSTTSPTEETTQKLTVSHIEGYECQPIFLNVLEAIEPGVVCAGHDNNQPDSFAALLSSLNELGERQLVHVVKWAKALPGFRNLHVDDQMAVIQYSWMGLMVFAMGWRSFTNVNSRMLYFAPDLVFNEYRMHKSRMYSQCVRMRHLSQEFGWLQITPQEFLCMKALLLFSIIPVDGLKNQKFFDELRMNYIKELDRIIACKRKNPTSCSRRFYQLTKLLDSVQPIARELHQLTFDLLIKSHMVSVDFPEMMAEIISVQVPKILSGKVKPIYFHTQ
Put plainly: Antagonist activity at AR F877L mutant (unknown origin) transfected in human LNCAP cells cotransfected with ARE-LUC incubated for 20 to 24 hrs in presence of AR agonist R1881 by steady-glo luciferase reporter gene assay relative to control. In kind it is cell-based. Conditions: filed as antagonist, time 20-24 hrs. A general note: Reporter assays use an easily measured gene product as a stand-in for the process of interest.

In data set [23] the target is T3, Androgen receptor (Homo sapiens, UniProt P10275).
T3 sequence (P10275 whole entry): T2 sequence (whole entry) with L877F
The data set can be described thus: Antagonist activity at AR wild-type (unknown origin) transfected in human LNCAP cells cotransfected with ARE-LUC incubated for 20 to 24 hrs in presence of AR agonist R1881 by steady-glo luciferase reporter gene assay. Format: cell-based.

In data set [24] the target is T4, Androgen receptor (Homo sapiens, UniProt P10275, F877L).
Data set [25] addresses T1, Androgen receptor (Rattus norvegicus). The conditions noted are these: Sprague-Dawley, dose 30.0 mg/kg, time 10.0 day.
The target in data set [26] is T4, Androgen receptor. This is another data set of the same source.
Data set [27] has as its target T1, Androgen receptor (Rattus norvegicus). The conditions noted are these: Sprague-Dawley, dose 30.0 mg/kg, time 10.0 day. This is another data set of the same source.
For data set [28] the target is unchanged. Conditions: Sprague-Dawley, dose 30.0 mg/kg, time 10.0 day. This is another data set of the same source.
The target is the same in data set [29]. The conditions noted are these: Sprague-Dawley, dose 30.0 mg/kg, time 10.0 day. The source holds these as a separate data set.
Data set [30] has the same target. The conditions noted are these: Sprague-Dawley, dose 30.0 mg/kg, time 10.0 day. This is another data set of the same source.

Take `N#Cc1ncc(N2C(=O)C3(CCC3)N(c3ccc(OC4CCNCC4)cc3)C2=S)cc1C(F)(F)F`: the Activity result in data set [1], in data set [3], in data set [6], in data set [18] and in data set [21] was “Toxic” throughout. Besides, the inhibition result in data set [2], in [9], in [12], in [15] and in [20] was “Active” in each case. In addition, the remaining at 1 h, 10 µM in data set [4] was determined as 99.8%; in [10], 100%. In addition, the results for the half-life in data set [5] and in data set [11] were 10.5 h and over 3 h, respectively. For the same compound, the Cmax in data set [7] was 1170 nM. Besides, the Vd in [8] is 5.56 L/kg. The compound further registered a clearance in [13] of 8.3 mL/min/kg. Further, the IC50 in data set [14] came to 0.306 µM. This compound also came in with an AUC(0-t) in data set [16] (CD1, mouse) of 10400 ng·h/mL. In [17] (CD1, mouse), this compound registered a bioavailability of 49%. In addition, the Papp A→B in [19] was 6.8 ×10⁻⁶ cm/s.

As to `COc1cc(N2C(=O)C3(CCC3)N(c3ccc(OC4CCN(C)CC4)nc3)C2=S)cnc1C#N`, the Imax in data set [22] is over 90%. Besides, the half-life in [5] was 4.2 h; in [11], 2.25 h. Further, the IC50 is 0.162 µM in data set [23], 0.102 µM in data set [24] and 0.277 µM in data set [14]. The concentration in data set [7] peaked (Cmax) at 1320 nM. Moreover, in [8], the Vd worked out at 2.93 L/kg. Moreover, the inhibition entry in data set [25], in data set [27], in [28], in data set [29] and in [30] was “Active” each time. Moreover, the midpoint of the response in [26], the EC50, lay at 0.838 µM. The compound also gave an AUClast in data set [16] (mouse) of 6100 ng·h/mL. This compound also had a F in data set [17] (mouse, 10 mg/kg) of 116%. The Papp A→B in data set [19] was determined as 22.1 ×10⁻⁶ cm/s.

The record behind these values is ChEMBL document CHEMBL4819022, “Discovery of JNJ-63576253: A Clinical Stage Androgen Receptor Antagonist for F877L Mutant and Wild-Type Castration-Resistant Prostate Cancer (mCRPC)” (J Med Chem, 2021).
